Test results: patent US9351974B2, “Substituted pteridinones for the treatment of cancer” (OSI Pharmaceuticals, LLC, priority 2011, dated 2016)

Molecular target: T1, His-tagged full-length RSK2 (RPS6KA3) (Homo sapiens, UniProt P51812)
T1 construct: His-tagged full-length RSK2 (RPS6KA3, Invitrogen PV3323); His; purchased Invitrogen PV3323
Test: RSK2 Omnia Assay for compound IC50 determination
Assay type: biochemical
Conditions: ATP 15 μM, n=2, read-out: Mean RSK2 Biochem IC50
In short: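 Continuous fluorescence assay (ex 360/em 485 nm) of SOX-peptide (Omnia ST Peptide 6, 5 μM) phosphorylation with ATP 15 μM (Km 16.3 μM). Enzyme was […], in pH 7.5 HEPES/MgCl2 buffer with 1% DMSO. IC50 came from 11-point threefold dilutions ([…]) by four-parameter fit of initial slopes, in duplicate; Ki by Cheng-Prusoff assuming competitive inhibition.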

T1 sequence (P51812 whole entry): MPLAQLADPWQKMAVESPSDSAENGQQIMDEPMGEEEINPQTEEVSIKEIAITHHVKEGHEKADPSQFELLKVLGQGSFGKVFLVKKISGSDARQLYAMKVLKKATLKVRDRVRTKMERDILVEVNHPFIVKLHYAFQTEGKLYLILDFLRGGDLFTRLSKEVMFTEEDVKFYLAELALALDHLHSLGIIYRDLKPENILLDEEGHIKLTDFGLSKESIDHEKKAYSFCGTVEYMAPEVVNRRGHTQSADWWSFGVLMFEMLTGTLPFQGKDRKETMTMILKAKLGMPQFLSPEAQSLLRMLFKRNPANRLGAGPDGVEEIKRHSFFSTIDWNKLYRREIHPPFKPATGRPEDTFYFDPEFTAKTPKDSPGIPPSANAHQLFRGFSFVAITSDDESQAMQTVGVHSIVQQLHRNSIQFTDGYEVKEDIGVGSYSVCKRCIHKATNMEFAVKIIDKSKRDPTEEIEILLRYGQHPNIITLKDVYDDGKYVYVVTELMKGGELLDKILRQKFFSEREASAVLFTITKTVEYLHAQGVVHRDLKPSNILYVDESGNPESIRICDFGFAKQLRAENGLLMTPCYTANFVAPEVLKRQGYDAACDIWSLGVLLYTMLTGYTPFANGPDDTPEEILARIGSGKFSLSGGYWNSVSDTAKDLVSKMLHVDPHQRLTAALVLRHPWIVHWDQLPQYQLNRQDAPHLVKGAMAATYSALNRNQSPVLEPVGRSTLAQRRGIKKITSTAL

Row | Compound | IC50 [µM]
1 | CCOc1ccc(N2C(=O)[C@@H](C)N(C3CCC(F)(F)CC3)c3nc(Nc4cc(F)c5[nH]c(=O)oc5c4)ncc32)cc1C#N [compound 280, 5-[(7R)-8-(4,4-difluorocyclohexyl)-2-[(4-fluoro-2-oxo-2,3-dihydro-1,3-benzoxazol-6-yl)amino]-7-methyl-6-oxo-7,8-dihydropteridin-5(6H)-yl]-2-ethoxybenzonitrile] | ≤ 0.1
2 | COc1ccc(N2C(=O)[C@@H](C)N(C3CCC(F)(F)CC3)c3nc(Nc4cc(F)c5[nH]c(=O)oc5c4)ncc32)cc1C#N [compound 281, 5-[(7R)-8-(4,4-difluorocyclohexyl)-2-[(4-fluoro-2-oxo-2,3-dihydro-1,3-benzoxazol-6-yl)amino]-7-methyl-6-oxo-7,8-dihydropteridin-5(6H)-yl]-2-methoxybenzonitrile] | ≤ 0.1
3 | CCOc1ccc(N2C(=O)[C@@H](C)N(C3CCC(F)(F)CC3)c3nc(Nc4cnc5[nH]ncc5c4)ncc32)cc1C#N [compound 282, 5-[(7R)-8-(4,4-difluorocyclohexyl)-7-methyl-6-oxo-2-(1H-pyrazolo[3,4-b]pyridin-5-ylamino)-7,8-dihydropteridin-5(6H)-yl]-2-ethoxybenzonitrile] | ≤ 0.1
4 | COc1ccc(N2C(=O)[C@@H](C)N(C3CCC(F)(F)CC3)c3nc(Nc4ccc5[nH]c(=O)oc5c4)ncc32)cc1C#N [compound 283, 5-[(7R)-8-(4,4-difluorocyclohexyl)-7-methyl-6-oxo-2-[(2-oxo-2,3-dihydro-1,3-benzoxazol-6-yl)amino]-7,8-dihydropteridin-5(6H)-yl]-2-methoxybenzonitrile] | 0.1 to 1
5 | CCOc1ccc(N2C(=O)[C@@H](C)N(C3CCC(F)(F)CC3)c3nc(Nc4ccc5[nH]c(=O)oc5c4)ncc32)cc1C#N [compound 284, 5-[(7R)-8-(4,4-difluorocyclohexyl)-7-methyl-6-oxo-2-[(2-oxo-2,3-dihydro-1,3-benzoxazol-6-yl)amino]-7,8-dihydropteridin-5(6H)-yl]-2-ethoxybenzonitrile] | 0.1 to 1
6 | CC(C)Oc1ccc(N2C(=O)[C@@H](C)N(C3CCC(F)(F)CC3)c3nc(Nc4ccc5[nH]c(=O)oc5c4)ncc32)cc1C#N [compound 285, 5-[(7R)-8-(4,4-difluorocyclohexyl)-7-methyl-6-oxo-2-[(2-oxo-2,3-dihydro-1,3-benzoxazol-6-yl)amino]-7,8-dihydropteridin-5(6H)-yl]-2-(propan-2-yloxy)benzonitrile] | ≤ 0.1
7 | CC(C)Oc1ccc(N2C(=O)[C@@H](C)N(C3CCC(F)(F)CC3)c3nc(Nc4cnc5[nH]ncc5c4)ncc32)cc1C#N [compound 286, 5-[(7R)-8-(4,4-difluorocyclohexyl)-7-methyl-6-oxo-2-(1H-pyrazolo[3,4-b]pyridin-5-ylamino)-7,8-dihydropteridin-5(6H)-yl]-2-(propan-2-yloxy)benzonitrile] | 0.1 to 1
8 | CC[C@@H]1C(=O)N(c2cccc(C#N)c2)c2cnc(Nc3cc(F)c4[nH]ncc4c3)nc2N1C1CCCCC1 [compound 287, 3-[(7R)-8-cyclohexyl-7-ethyl-2-[(7-fluoro-1H-indazol-5-yl)amino]-6-oxo-7,8-dihydropteridin-5(6H)-yl]benzonitrile] | ≤ 0.1
9 | CC[C@@H]1C(=O)N(c2cccnc2)c2cnc(Nc3cc(F)c4[nH]ncc4c3)nc2N1C1CCCCC1 [compound 288, (7R)-8-cyclohexyl-7-ethyl-2-[(7-fluoro-1H-indazol-5-yl)amino]-5-(pyridin-3-yl)-7,8-dihydropteridin-6(5H)-one] | ≤ 0.1
10 | CC[C@@H]1C(=O)N(c2ccc(OC)c(OC)c2)c2cnc(Nc3cc(F)c4[nH]ncc4c3)nc2N1C1CCCCC1 [compound 289, (7R)-8-cyclohexyl-5-(3,4-dimethoxyphenyl)-7-ethyl-2-[(7-fluoro-1H-indazol-5-yl)amino]-7,8-dihydropteridin-6(5H)-one] | ≤ 0.1
11 | CC[C@@H]1C(=O)N(c2cccc(F)c2)c2cnc(Nc3cc(F)c4[nH]ncc4c3)nc2N1C1CCCCC1 [compound 290, (7R)-8-cyclohexyl-7-ethyl-2-[(7-fluoro-1H-indazol-5-yl)amino]-5-(3-fluorophenyl)-7,8-dihydropteridin-6(5H)-one] | ≤ 0.1
12 | CC[C@@H]1C(=O)N(c2cccc(C(F)(F)F)c2)c2cnc(Nc3cc(F)c4[nH]ncc4c3)nc2N1C1CCCCC1 [compound 291, (7R)-8-cyclohexyl-7-ethyl-2-[(7-fluoro-1H-indazol-5-yl)amino]-5-[3-(trifluoromethyl)phenyl]-7,8-dihydropteridin-6(5H)-one] | ≤ 0.1
13 | CC[C@@H]1C(=O)N(c2ccc(N3CCOCC3)nc2)c2cnc(Nc3cc(F)c4[nH]ncc4c3)nc2N1C1CCCCC1 [compound 292, (7R)-8-cyclohexyl-7-ethyl-2-[(7-fluoro-1H-indazol-5-yl)amino]-5-[6-(morpholin-4-yl)pyridin-3-yl]-7,8-dihydropteridin-6(5H)-one] | ≤ 0.1
14 | CC[C@@H]1C(=O)N(c2ccc(N(C)C)nc2)c2cnc(Nc3cc(F)c4[nH]ncc4c3)nc2N1C1CCCCC1 [compound 293, (7R)-8-cyclohexyl-5-[6-(dimethylamino)pyridin-3-yl]-7-ethyl-2-[(7-fluoro-1H-indazol-5-yl)amino]-7,8-dihydropteridin-6(5H)-one] | ≤ 0.1
15 | CC[C@@H]1C(=O)N(c2ccc(OC)c(F)c2)c2cnc(Nc3cc(F)c4[nH]ncc4c3)nc2N1C1CCCCC1 [compound 294, (7R)-8-cyclohexyl-7-ethyl-2-[(7-fluoro-1H-indazol-5-yl)amino]-5-(3-fluoro-4-methoxyphenyl)-7,8-dihydropteridin-6(5H)-one] | ≤ 0.1
16 | CC[C@@H]1C(=O)N(c2cccc(C#N)c2)c2cnc(Nc3ccc4[nH]nc(F)c4c3)nc2N1C1CCCCC1 [compound 295, 3-[(7R)-8-cyclohexyl-7-ethyl-2-[(3-fluoro-1H-indazol-5-yl)amino]-6-oxo-7,8-dihydropteridin-5(6H)-yl]benzonitrile] | ≤ 0.1
17 | [2H]C1([2H])C(N2c3nc(Nc4cc(F)c5[nH]ncc5c4)ncc3N(c3ccc(OC)c(OC)c3)C(=O)[C@H]2C)C([2H])([2H])C([2H])([2H])C([2H])([2H])C1([2H])[2H] [compound 300, (7R)-8-[(2,2,3,3,4,4,5,5,6,6-2H10)cyclohexyl]-5-(3,4-dimethoxyphenyl)-2-[(7-fluoro-1H-indazol-5-yl)amino]-7-methyl-7,8-dihydropteridin-6(5H)-one] | ≤ 0.1
18 | [2H]C1([2H])C(N2c3nc(Nc4cc(F)c5[nH]ncc5c4)ncc3N(c3cccnc3)C(=O)[C@H]2C)C([2H])([2H])C([2H])([2H])C([2H])([2H])C1([2H])[2H] [compound 301, (7R)-8-[(2,2,3,3,4,4,5,5,6,6-2H10)cyclohexyl]-2-[(7-fluoro-1H-indazol-5-yl)amino]-7-methyl-5-(pyridin-3-yl)-7,8-dihydropteridin-6(5H)-one] | ≤ 0.1
19 | [2H]C1([2H])C(N2c3nc(Nc4cc(F)c5[nH]ncc5c4)ncc3N(c3cccc(C#N)c3)C(=O)[C@H]2C)C([2H])([2H])C([2H])([2H])C([2H])([2H])C1([2H])[2H] [compound 302, 3-[(7R)-8-[(2,2,3,3,4,4,5,5,6,6-2H10)cyclohexyl]-2-[(7-fluoro-1H-indazol-5-yl)amino]-7-methyl-6-oxo-7,8-dihydropteridin-5(6H)-yl]benzonitrile] | ≤ 0.1
20 | C[C@@H]1C(=O)N(c2ccc[n+]([O-])c2)c2cnc(Nc3cc(F)c4[nH]ncc4c3)nc2N1C1CCC(C)(C)CC1 [compound 304, (7R)-8-(4,4-dimethylcyclohexyl)-2-[(7-fluoro-1H-indazol-5-yl)amino]-7-methyl-5-(1-oxidopyridin-3-yl)-7,8-dihydropteridin-6(5H)-one] | ≤ 0.1
21 | COc1ccc(N2C(=O)[C@@H](C)N(C3CCC(=O)CC3)c3nc(Nc4cc(F)c5[nH]ncc5c4)ncc32)cc1OC [compound 308, (7R)-5-(3,4-dimethoxyphenyl)-2-[(7-fluoro-1H-indazol-5-yl)amino]-7-methyl-8-(4-oxocyclohexyl)-7,8-dihydropteridin-6(5H)-one] | ≤ 0.1
22 | C[C@@H]1C(=O)N(c2cccc(C#N)c2)c2cnc(Nc3ccc4[nH]ncc4c3)nc2N1[C@H]1CC[C@@H](O)CC1 [compound 309, 3-[(7R)-8-(cis-4-hydroxycyclohexyl)-2-(1H-indazol-5-ylamino)-7-methyl-6-oxo-7,8-dihydropteridin-5(6H)-yl]benzonitrile] | > 1
23 | (7R)-8-cyclohexyl-2-(1H-indazol-5-ylamino)-7-methyl-5-[4-(morpholin-4-yl)phenyl]-7,8-dihydropteridin-6(5H)-one [compound 126] | ≤ 0.1
24 | (7R)-8-cyclohexyl-2-[(7-fluoro-1H-indazol-5-yl)amino]-7-methyl-5-[4-(morpholin-4-yl)phenyl]-7,8-dihydropteridin-6(5H)-one [compound 134] | ≤ 0.1
